# Assay results published in patent US20030105300A1, “Tumor targeted photodiagnostic-phototherapeutic agents” (MALLINCKRODT INC., priority 2001, published 2003).
# What was measured:
# Design in all cases: species or system male Lewis rats
# [1] = system: Dunning R3327-H (prostate) tumor; test: In vivo fluorescence imaging of tumor-bearing rats with indocyanine green (Dunning R3327-H); conditions: left flank, 0.5 ml of 0.42 mg/ml ICG in saline, tail vein, images at 2 and 30 minutes
# Description: (§1) A non-invasive in vivo fluorescence imaging apparatus was employed to assess the efficacy of indocyanine green (ICG) in three different rat tumor cell lines of the inventive contrast agents developed for tumor detection in animal models. A LaserMax Inc. laser diode of nominal wavelength 780 nm and nominal power of 40 mW was used. The detector was a Princeton Instruments model RTE/CCD-1317-K/2 CCD camera with a Rodenstock 10 mm F2 lens (stock #542.032.002.20) attached. An 830 nm […] (CVI Laser Corp., part #F10-830-4-2) was mounted in front of the CCD input lens, such that only emitted fluorescent light from the contrast agent was imaged.
# (§2) Three tumor cell lines, DSL 6/A (pancreatic), Dunning R3327-H (prostate), and CA20948 (pancreatic), which are rich in somatostatin (SST-2) receptors were induced into male Lewis rats by solid implant technique in the left flank area (Achilefu et al., Invest. Radiology, 2000, pp. 479-485). Palpable masses were detected nine days post implant.
# [2] = system: DSL 6/A (pancreatic) tumor; test: In vivo fluorescence imaging of tumor-bearing rats with indocyanine green (DSL 6/A); conditions: DSL 6/A tumor, left flank; 0.5 ml of 0.42 mg/ml ICG in saline, tail vein; images at 2 and 30 minutes
# Description: as §1, §2
# [3] = system: CA20948 (pancreatic) tumor; test: In vivo fluorescence imaging of tumor-bearing rats with indocyanine green (CA20948)
# Description: as §1, §2
smiles,measurement,setting,value
"CC1(C)C(/C=C/C=C/C=C/C=C2\N(CCCCS(=O)(=O)O)c3ccc4ccccc4c3C2(C)C)=[N+](CCCCS(=O)(=O)[O-])c2ccc3ccccc3c21 [ICG, indocyanine green]",perfusion of the agent into the tumor (fluorescence images),[1],slow perfusion of the agent into the tumor over time
same,perfusion of the agent into the tumor (fluorescence images),[2],slow perfusion of the agent into the tumor over time
same,non-specific localization into the tumor line,[3]; compared to the other two lines,no non-specific localization
same,perfusion of the agent into the tumor (fluorescence images),"[3]; left flank, 0.5 ml of 0.42 mg/ml ICG in saline, tail vein, images at 2 and 30 minutes",only a slight and transient perfusion that was cleared after only 30 minutes post injection
